{
  "source": "patent US6303626A",
  "about": "“Pharmaceutical formulations in dry form for the oral administration of a cyclic quaternary ammonium compound” (Sanofi-Synthelabo, priority 1997, dated 2001)",
  "key": {"[1]": {"assay": "Solubility in different media / solvents", "type": "physicochemical", "conditions": "dmso, organic solvent or mixture; read-out: Solubility in dimethyl sulfoxide (DMSO)"}, "[2]": {"assay": "Solubility of compound A in water at the saturation point, 24 h, room temperature, UV spectrometry", "type": "physicochemical", "conditions": "for solubility at 24 h: water, room temperature, read-out: Concentration of compound A (solubility in water at saturation)", "description": "1. Solubility of Compound A"}, "in vivo": {"assay": "in vivo", "conditions": "rat, 0.6% aqueous solution of compound A in methyl cellulose, read-out: Estimated absorption", "description": "In this model, the permeability to compound A dissolved in dimethyl sulfoxide (DMSO) is 3.4.10^-7 cm/s. Furthermore, studies performed on the rat with a 0.6% aqueous solution of compound A in methyl cellulose have shown that its estimated absorption is less than 1%."}, "Caco-2 cells": {"system": "Caco-2 cells", "type": "in vitro ADME", "conditions": "polysorbate 80 added to a solution of compound A in the cell culture medium", "description": "This line is conventionally used for evaluating the ability of compounds to permeate the epithelium (Crit. Rev. Ther. Drug Carrier System. 1991, 8 (4), 105-330).\n2. Evaluation of the Intestinal Transepithelial Passage of Compound A\nCaco-2 cells are inoculated onto microporous polycarbonate filters covered with collagen. The cellular monolayer formed on the filter then makes it possible to separate an apical compartment (imitating the intestinal lumen) from a basal compartment (imitating the blood circulation).\nThe composition containing the compound to be studied is then placed on the apical side and the passage of this compound, dispersed or solubilized in Hank's medium, through this cellular barrier is evaluated by measuring the kinetics of its appearance on the basal side. This aqueous medium, of pH 6.5, has the following composition: NaCl=8.0 g/l; KCl=0.4 g/l; CaCl2 =0.19 g/l; MgCl2 =0.1 g/l; MgSO4 =0.1 g/l; Na2 HPO4 =0.09 g/l; KH2 PO4 =0.06 g/l; NaHCO3 =0.35 g/l; glucose=1 g/l; phenol red=0.01 g/l. […]\nVarious non-ionic surfactants or agents said to improve absorption, such as a C8 -C10 fatty acid or one of its derivatives, were added to the formulation described above, placed in Hank's medium, and the relative rate of intestinal transepithelial passage of compound A in these formulations was measured."}},
  "note": "Read-outs that look alike come from different tables or passages of the source.",
  "data": [
    {"smiles": "CC(C)Oc1cccc(CC(=O)N2CCC[C@](CC[N+]34CCC(c5ccccc5)(CC3)CC4)(c3ccc(Cl)c(Cl)c3)C2)c1", "note": "[compound A, (S)-1-{2-[3-(3,4-dichlorophenyl)-1-(3-iso-propoxyphenylacetyl)piperidin-3-yl]ethyl}-4-phenyl-1-azoniabicyclo[2.2.2]octane]", "values": [
      {"measurement": "solubility", "setting": "[1]", "value": 168000, "unit": "µg/mL"},
      {"measurement": "Solubility in water, dependence on pH", "setting": "[2]; pH 1 to 9", "value": "low and not dependent on the pH"},
      {"measurement": "solubility at 24 h", "setting": "[2]; pH 1", "value": 310, "unit": "µg/mL"},
      {"measurement": "solubility at 24 h", "setting": "[2]; pH 3", "value": 310, "unit": "µg/mL"},
      {"measurement": "solubility at 24 h", "setting": "[2]; pH 5", "value": 310, "unit": "µg/mL"},
      {"measurement": "solubility at 24 h", "setting": "[2]; pH 7", "value": 290, "unit": "µg/mL"},
      {"measurement": "solubility at 24 h", "setting": "[2]; pH 9", "value": 310, "unit": "µg/mL"},
      {"measurement": "Fa", "setting": "in vivo", "value": "< 1", "unit": "%"},
      {"measurement": "Effect of addition of polysorbate 80 on transepithelial passage", "setting": "Caco-2 cells", "value": "substantially improves the transepithelial passage"}
    ]}
  ]
}
